Here are results for 14 molecules from ChEMBL document CHEMBL5042529, “One-Pot Enzymatic Synthesis and Biological Evaluation of Ganglioside GM3 Derivatives as Potential Cancer Immunotherapeutics” (J Med Chem, 2022).

Data set [1] in a line: Cytotoxicity against rat PC-12 cells measured after 24 hrs by MTT assay. The class given is toxicity, cell-based.
Data set [2] is described as follows: Cytotoxicity against human A-431 cells measured after 24 hrs by MTT assay. It counts as toxicity, cell-based. On the technique in general: Tetrazolium dyes change colour on reduction, which living cells bring about.
Data set [3] can be described thus: Cytotoxicity against mouse Neuro2a cells measured after 24 hrs by MTT assay. The class given is toxicity, cell-based, N2a.
The nature of data set [4]: Cytotoxicity against CHO cells measured after 24 hrs by MTT assay. The following applies: Chinese hamster. The class given is toxicity, cell-based, Cricetulus griseus.
The subject of data set [5] is A-431. The data set is described as follows: Antimigratory activity in human A-431 cells assessed as inhibition of scratch at 50 uM measured after 24 hrs by Wound healing assay. The class given is functional.
The nature of data set [6]: Cytotoxicity against human HeLa cells measured after 24 hrs by MTT assay. It counts as toxicity, cell-based.
Data set [7] concerns A-431. The data set is described as follows: Inhibition of cell invasion in human A-431 cells assessed as inhibition rate at 50 uM incubated for 24 hrs by crystal violet staining based transwell assay. The class given is functional.
For data set [8], the system named is Mus musculus. Briefly: Effect on IL-2 expression in C57BL/6 mouse transfected with mouse B16-Luc cells assessed as serum IgG level at 5 mg/kg, ip qd treated for 7 days by ELISA. The class given is functional, organism-based. The following applies: time 7.0 day.
Data set [9] deals with Mus musculus. The data set is described as follows: Effect on IL-2 expression in C57BL/6 mouse transfected with mouse B16-Luc cells assessed as serum […] level at 5 mg/kg, ip qd treated for 7 days by ELISA. The class given is functional, organism-based. To be noted: time 7.0 day.
Data set [10] has as its system Mus musculus. Briefly: Effect on IL-2 expression in C57BL/6 mouse transfected with mouse B16-Luc cells assessed as serum IL-2 level at 5 mg/kg, ip qd treated for 7 days by ELISA. The following applies: time 7.0 day. The class given is functional, organism-based. (ELISA stands for enzyme-linked immunosorbent assay.)

Each structure is given as a SMILES string. The source made the active and inactive calls. The rule behind the calls is not given here. Bounds are passed on as bounds.

`CCCCCCCCCCCCC/C=C/[C@@H](O)[C@H](CO[C@@H]1O[C@H](CO)[C@@H](O[C@@H]2O[C@H](CO)[C@H](O)[C@H](O[C@]3(C(=O)O)C[C@H](O)[C@@H](NC(=O)c4cccc(F)c4)[C@H]([C@H](O)[C@H](O)CO)O3)[C@H]2O)[C@H](O)[C@H]1O)NC(=O)CCCCCCCCCCCCCCCCC`: the half-inhibitory concentration (IC50) at 24 h in data set [1], in data set [2], in [3], in data set [4] and in data set [6] was more than 200 µM in each case. The outcome in the data set on A-431 [5] was Active. For the same molecule, the inhibition – broadly, the relative decrease from the control value, in per cent – at 50 µM with A-431 [7] stood at 27.8%.

Take `CCCCCCCCCCCCC/C=C/[C@@H](O)[C@H](CO[C@@H]1O[C@H](CO)[C@@H](O[C@@H]2O[C@H](CO)[C@H](O)[C@H](O[C@]3(C(=O)O)C[C@H](O)[C@@H](NC(=O)c4ccc(C=O)cc4)[C@H]([C@H](O)[C@H](O)CO)O3)[C@H]2O)[C@H](O)[C@H]1O)NC(=O)CCCCCCCCCCCCCCCCC`: the 50% inhibitory concentration (IC50) at 24 h in [1], in [2], in data set [3], in data set [4] and in data set [6] was more than 200 µM each time. Also, the result in the data set on A-431 [5] was Active.

In the case of `CCCCCCCCCCCCC/C=C/[C@@H](O)[C@H](CO[C@@H]1O[C@H](CO)[C@@H](O[C@@H]2O[C@H](CO)[C@H](O)[C@H](O[C@]3(C(=O)O)C[C@H](O)[C@@H](NC(=O)c4cccc(Br)c4)[C@H]([C@H](O)[C@H](O)CO)O3)[C@H]2O)[C@H](O)[C@H]1O)NC(=O)CCCCCCCCCCCCCCCCC`, the IC50 at 24 h in [1], in data set [2], in data set [3], in data set [4] and in data set [6] was more than 200 µM each time.

Turning to `CCCCCCCCCCCCC/C=C/[C@@H](O)[C@H](CO[C@@H]1O[C@H](CO)[C@@H](O[C@@H]2O[C@H](CO)[C@H](O)[C@H](O[C@]3(C(=O)O)C[C@H](O)[C@@H](NC(=O)c4cc(F)cc(F)c4)[C@H]([C@H](O)[C@H](O)CO)O3)[C@H]2O)[C@H](O)[C@H]1O)NC(=O)CCCCCCCCCCCCCCCCC`, the IC50 at 24 h in [1], in data set [2], in [3], in [4] and in [6] was more than 200 µM throughout.

As to `CCCCCCCCCCCCC/C=C/[C@@H](O)[C@H](CO[C@@H]1O[C@H](CO)[C@@H](O[C@@H]2O[C@H](CO)[C@H](O)[C@H](O[C@]3(C(=O)O)C[C@H](O)[C@@H](NC(C)=O)[C@H]([C@H](O)[C@H](O)CO)O3)[C@H]2O)[C@H](O)[C@H]1O)NC(=O)CCCCCCCCCC`, the concentration for half-maximal inhibition (IC50) at 24 h in [1], in [2], in data set [3], in [4] and in data set [6] was more than 200 µM throughout.

In the case of `CCCCCCCCCCCCC/C=C/[C@@H](O)[C@H](CO[C@@H]1O[C@H](CO)[C@@H](O[C@@H]2O[C@H](CO)[C@H](O)[C@H](O[C@]3(C(=O)O)C[C@H](O)[C@@H](NC(=O)Cc4ccc(C)cc4)[C@H]([C@H](O)[C@H](O)CO)O3)[C@H]2O)[C@H](O)[C@H]1O)NC(=O)CCCCCCCCCCCCCCCCC`, the 50% inhibitory concentration (IC50) at 24 h in data set [1], in [2], in data set [3], in data set [4] and in data set [6] was more than 200 µM each time.

For the molecule `CCCCCCCCCCCCC/C=C/[C@@H](O)[C@H](CO[C@@H]1O[C@H](CO)[C@@H](O[C@@H]2O[C@H](CO)[C@H](O)[C@H](O[C@]3(C(=O)O)C[C@H](O)[C@@H](NC(=O)c4ccc(I)cc4)[C@H]([C@H](O)[C@H](O)CO)O3)[C@H]2O)[C@H](O)[C@H]1O)NC(=O)CCCCCCCCCCCCCCCCC`, the IC50 at 24 h in data set [1], in data set [2], in data set [3], in [4] and in [6] was more than 200 µM throughout.

For `CCCCCCCCCCCCC/C=C/[C@@H](O)[C@H](CO[C@@H]1O[C@H](CO)[C@@H](O[C@@H]2O[C@H](CO)[C@H](O)[C@H](O[C@]3(C(=O)O)C[C@H](O)[C@@H](NC(=O)c4ccccc4)[C@H]([C@H](O)[C@H](O)CO)O3)[C@H]2O)[C@H](O)[C@H]1O)NC(=O)CCCCCCCCCCCCCCCCC`, the IC50 at 24 h in data set [1], in data set [2], in data set [3], in data set [4] and in data set [6] was more than 200 µM throughout.

As to `CCCCCCCCCCCCC/C=C/[C@@H](O)[C@H](CO[C@@H]1O[C@H](CO)[C@@H](O[C@@H]2O[C@H](CO)[C@H](O)[C@H](O[C@]3(C(=O)O)C[C@H](O)[C@@H](NC(=O)c4ccncc4)[C@H]([C@H](O)[C@H](O)CO)O3)[C@H]2O)[C@H](O)[C@H]1O)NC(=O)CCCCCCCCCCCCCCCCC`, the IC50 at 24 h in [1], in [2], in data set [3], in data set [4] and in [6] was more than 200 µM each time. Moreover, the result in the data set on A-431 [5] was Active. In addition, the inhibition at 50 µM in the data set with A-431 [7] was 26.2%.

Take `CCCCCCCCCCCCC/C=C/[C@@H](O)[C@H](CO[C@@H]1O[C@H](CO)[C@@H](O[C@@H]2O[C@H](CO)[C@H](O)[C@H](O[C@]3(C(=O)O)C[C@H](O)[C@@H](NC(=O)c4cc(C)cc(C)c4)[C@H]([C@H](O)[C@H](O)CO)O3)[C@H]2O)[C@H](O)[C@H]1O)NC(=O)CCCCCCCCCCCCCCCCC`: the half-inhibitory concentration (IC50) at 24 h in [1], in [2], in [3], in [4] and in data set [6] was more than 200 µM each time.

With `CCCCCCCCCCCCC/C=C/[C@@H](O)[C@H](CO[C@@H]1O[C@H](CO)[C@@H](O[C@@H]2O[C@H](CO)[C@H](O)[C@H](O[C@]3(C(=O)O)C[C@H](O)[C@@H](NC(=O)CC)[C@H]([C@H](O)[C@H](O)CO)O3)[C@H]2O)[C@H](O)[C@H]1O)NC(=O)CCCCCCCCCCCCCCCCC`, the IC50 at 24 h in data set [1], in [2], in [3], in data set [4] and in data set [6] was more than 200 µM in each case.

Regarding `CCCCCCCCCCCCC/C=C/[C@@H](O)[C@H](CO[C@@H]1O[C@H](CO)[C@@H](O[C@@H]2O[C@H](CO)[C@H](O)[C@H](O[C@]3(C(=O)O)C[C@H](O)[C@@H](NC(=O)c4ccc(F)cc4)[C@H]([C@H](O)[C@H](O)CO)O3)[C@H]2O)[C@H](O)[C@H]1O)NC(=O)CCCCCCCCCCCCCCCCC`, the concentration for half-maximal inhibition (IC50) at 24 h in data set [1], in [2], in [3], in data set [4] and in data set [6] was more than 200 µM each time.

Turning to `CCCCCCCCCCCCC/C=C/[C@@H](O)[C@H](CO[C@@H]1O[C@H](CO)[C@@H](O[C@@H]2O[C@H](CO)[C@H](O)[C@H](O[C@]3(C(=O)O)C[C@H](O)[C@@H](NC(=O)c4cccc([N+](=O)[O-])c4)[C@H]([C@H](O)[C@H](O)CO)O3)[C@H]2O)[C@H](O)[C@H]1O)NC(=O)CCCCCCCCCCCCCCCCC`, the half-maximal inhibitory concentration (IC50) at 24 h in [1], in [2], in data set [3], in data set [4] and in data set [6] was more than 200 µM each time.

For the molecule `CCCCCCCCCCCCC/C=C/[C@@H](O)[C@H](CO[C@@H]1O[C@H](CO)[C@@H](O[C@@H]2O[C@H](CO)[C@H](O)[C@H](O[C@]3(C(=O)O)C[C@H](O)[C@@H](NC(C)=O)[C@H]([C@H](O)[C@H](O)CO)O3)[C@H]2O)[C@H](O)[C@H]1O)NC(=O)CCCCCCCCCCCCCCCCC`, the outcome with Mus musculus [8], in the data set on Mus musculus [9] and with Mus musculus [10] was inactive.
